What was measured:
[1] = test system: pancreatic carcinoma cell line MiaPaca; assay: Apoptotic cell death by DNA fragmentation, MiaPaca; type: cell-based, human; conditions: 1 μM ABT-263, 48 h
Method: (§1) The human malignant cell lines used in this study are the T cell leukemic cell lines CEM, Molt-4 and Jurkat (J16), the HL cell line KM-H2, the cervix adenocarcinoma cell line HeLa, the melanoma cell line A375, the hepatocellular carcinoma cell line HepG2, the pancreatic carcinoma cell line MiaPaca, the breast cancer cell line MCF-7, the prostatic cancer cell line PC3 and the colon carcinoma cell line HCT116. All cells were cultured in RPMI 1640 or DMEM medium (GIBCO laboratories, Grand Island, USA), supplemented with 10% FCS, 100 Units/ml penicillin (GIBCO), 100 μg/m1 streptomycin (GIBCO) and 2 mM L-glutamine (GIBCO) at 37° C. and 5%. Wogonin (BIOTREND Chemicals AG, Wangen, Switzerland), apigenin, chrysin, luteolin and baicalein (Sigma, St. Louis, USA) were solved in dimethyl sulfoxide (DMSO; Roth, Karlsruhe, Germany) at a stock concentration of 50 mM. Cells were treated with different concentrations of different flavones or ABT-263 (Selleck Chemicals, Houston, USA) for 24 to 48 h. Apoptotic cell death was examined by analysis of DNA fragmentation as previously described 23 (Fas et al.,2006, Blood 108: 3700-6). Results are presented as % specific DNA fragmentation using the formula: (percentage of experimental apoptosis-percentage of spontaneous apoptosis)/(100-percentage of spontaneous apoptosis)×100.

[2] = test system: cervix adenocarcinoma cell line HeLa; assay: Apoptotic cell death by DNA fragmentation, HeLa; type: cell-based, human; conditions: 1 μM ABT-263, 48 h
Method: as §1

[3] = test system: breast cancer cell line MCF-7; assay: Apoptotic cell death by DNA fragmentation, MCF-7; type: cell-based, human; conditions: 1 μM ABT-263, 48 h
Method: as §1

human ALL RS4;11 = conditions: 100 mg/kg/day; cited from earlier work
[4] = test system: colon carcinoma cell line HCT116; assay: Apoptotic cell death by DNA fragmentation, HCT116; type: cell-based, human; conditions: 1 μM ABT-263, 48 h
Method: as §1

[5] = test system: proliferating normal peripheral blood T cells; assay: Apoptotic cell death by DNA fragmentation, proliferating normal T cells; type: cell-based; conditions: human
Method: Normal T cells were isolated from peripheral blood of healthy donors and activated to proliferate as described in the Materials and Methods. The proliferating T cells were treated with different concentrations of ABT-263 in the absence or presence of wogonin as indicated. Apoptotic cell death was determined by DNA fragmentation. Results are presented as pooled data from four independent donors. (B) Proliferating normal T cells express higher levels of Mcl-1 and Bcl-2 than leukemic Jurkat and Molt-4 T cells. Total cell lysates of activated T cells from three healthy donors were compared with leukemic cells for the expression levels of Mcl-1, Bcl-2, Bcl-xL and Bcl-w. CDK6 is known to be over-expressed in many tumor cells and was used as a marker for malignant cells. Representative blots from two independent experiments are shown. […] Human platelets in 10% FCS were treated with different concentrations of ABT-263 in the absence or presence of wogonin as indicated. After 1 h treatment, apoptotic cell death was determine by staining with annexin V/FITC. Results are average of two independent assays.
Human peripheral blood T cells were prepared as described previously 23 and were more than 90% CD3 positive. For generation of proliferating T cells, freshly isolated T cells were cultured at 2×10^6 cells/ml and were activated with […] PHA overnight. Activated T cells were then washed three times and cultured for additional 5 days in the presence of 25 U/ml IL-2. Platelets were prepared as described in Vogler et al., 2011, Blood 117: 7145-54.
Wogonin (BIOTREND Chemicals AG, Wangen, Switzerland), apigenin, chrysin, luteolin and baicalein (Sigma, St. Louis, USA) were solved in dimethyl sulfoxide (DMSO; Roth, Karlsruhe, Germany) at a stock concentration of 50 mM. Cells were treated with different concentrations of different flavones or ABT-263 (Selleck Chemicals, Houston, USA) for 24 to 48 h. Apoptotic cell death was examined by analysis of DNA fragmentation as previously described 23 (Fas et al.,2006, Blood 108: 3700-6). […]

[6] = test system: hepatocellular carcinoma cell line HepG2; assay: Apoptotic cell death by DNA fragmentation, HepG2; type: cell-based, human; conditions: HepG3 (so in the source); 1 μM ABT-263, 48 h
Method: as §1

[7] = test system: ABT-263-resistant CEM (CEM-R); assay: Apoptotic cell death by DNA fragmentation, ABT-263-resistant CEM; type: cell-based, human; conditions: CEM treated with increasing ABT-263 up to 1 μM, 2 months
Method: (§2) Wogonin (BIOTREND Chemicals AG, Wangen, Switzerland), apigenin, chrysin, luteolin and baicalein (Sigma, St. Louis, USA) were solved in dimethyl sulfoxide (DMSO; Roth, Karlsruhe, Germany) at a stock concentration of 50 mM. Cells were treated with different concentrations of different flavones or ABT-263 (Selleck Chemicals, Houston, USA) for 24 to 48 h. Apoptotic cell death was examined by analysis of DNA fragmentation as previously described 23 (Fas et al.,2006, Blood 108: 3700-6). Results are presented as % specific DNA fragmentation using the formula: (percentage of experimental apoptosis-percentage of spontaneous apoptosis)/(100-percentage of spontaneous apoptosis)×100.

CEM tumors = assay: CEM xenograft in immunodeficient mice; type: in vivo; conditions: Rag2-/-/Il2rg-/- mice, s.c. CEM; ABT-263 50 mg/kg p.o. and/or wogonin 50 mg/kg i.p.
Method: Immunodeficient mice (Rag2−/−/II2rg−/−) were implanted subcutaneously in the dorsal flank region with CEM (5×10^7 cells). After the tumors reached to approximate 35 mm3, tumor size matched mice were treated with ABT-263 (50 mg/kg, once in each third or fourth day) in the presence or absence of 50 mg/kg wogonin. ABT-263 was formulated according to the protocol previously described 9 and administered p.o. Wogonin dissolved in DMSO was diluted in sunflower oil and administered i.p. For combination studies, ABT-263 was given 2 h before wogonin. The control group was treated in an analogous manner with the vehicle. The tumor size was measured with a micrometer caliper two to three times weekly and the tumor volume (V) was calculated by the formula V=(width2×length)/2. All protocols using and maintaining animals were approved by the German Animal Protection Authority (Office Regierungsprasidium Karlsruhe) in Karlsruhe.

Colo-357 cells = assay: Apoptotic cell death by DNA fragmentation, Colo-357; type: cell-based; conditions: 1 μM ABT-263, 48 h
Method: as §2

[8] = test system: prostatic cancer cell line PC3; assay: Apoptotic cell death by DNA fragmentation, PC3; type: cell-based, human; conditions: 1 μM ABT-263, 48 h
Method: as §1

Mcl-1 = assay: Western blot analysis of Mcl-1 expression; type: cell-based, human; conditions: Jurkat and CEM with acquired ABT-263 resistance
Source text: For each sample, 1×10^7 cells were lysed as previously described. 23 Equal amounts of protein were separated on 5-13% SDS-PAGE depending on the molecular sizes of the proteins and blotted onto a nitrocellulose membrane (Amersham Biosciences, Little Chalfon, UK) as previously described. 23 The following antibodies were used: Bad, Bax, Bcl-xL, Bcl-w, XIAP from Cell Signaling Technology, Danvers, USA; Bcl-2 (sc-509) and Mcl-1 (sc-819) from Santa Cruz Biotechnology, Heidelberg, Germany; Tubulin and actin from Sigma, Saint Louis, USA.

[9] = test system: Hodgkin lymphoma (HL) cell line KM-H2; assay: Apoptotic cell death by DNA fragmentation, KM-H2; type: cell-based, human; conditions: 1 μM ABT-263, 48 h
Method: as §1

melanoma cell line A375 = assay: Apoptotic cell death by DNA fragmentation, A375; type: cell-based, human; conditions: 1 μM ABT-263, 48 h
Method: as §1

[10] = test system: ABT-263-resistant Jurkat (Jurkat-R); assay: Apoptotic cell death by DNA fragmentation, ABT-263-resistant Jurkat; type: cell-based, human; conditions: Jurkat treated with increasing ABT-263 up to 10 μM, 3 months
Method: as §2

## CC1(C)CCC(c2ccc(Cl)cc2)=C(CN2CCN(c3ccc(C(=O)NS(=O)(=O)c4ccc(N[C@H](CCN5CCOCC5)CSc5ccccc5)c(S(=O)(=O)C(F)(F)F)c4)cc3)CC2)C1 [ABT-263, (R)-4-(4-((4′-chloro-4,4-dimethyl-3,4,5,6-tetrahydro-[1,1′-biphenyl]-2-yl)methyl)piperazin-1-yl)--N-((4-((4-morpholino-1-(phenylthio)butan-2-yl)amino)-3-((trifluoromethyl)sulfonyl)phenyl)sulfonyl)benzamide]
[1]
  cell death: less than 5%
[2]
  cell death: less than 5%
[3]
  cell death: less than 5%
Human ALL RS4;11
  tumor response: complete tumor response rate
[4]
  cell death: 10-20%
[5]
  sensitivity of proliferating normal T cells to ABT-263: higher resistance to ABT-263 compared to leukemic cells
[6]
  cell death: 10-20%
[7]
  sensitivity to ABT-263 after long-term exposure: resistant to ABT-263
CEM tumors
  tumor growth / tumor response: no significant inhibition of tumor growth
Colo-357 cells
  cell death: less than 5%
[8]
  cell death: less than 5%
Mcl-1
  Mcl-1 expression after long-term ABT-263 exposure: elevated Mcl-1 expression
[9]
  cell death: less than 5%
Melanoma cell line A375
  cell death: 10-20%
[10]
  sensitivity to ABT-263 after long-term exposure: resistant to ABT-263
